Experimental data published in the supplement of paper PMC10307832.

How the values were obtained:
Test in all cases: relative viability (nuclei count vs DMSO), 5 days (fraction); higher = more cells survive
[1] = compound: CC(=O)c1c(C)c2cnc(Nc3ccc(N4CCNCC4)cn3)nc2n(C2CCCC2)c1=O [Palbociclib] + O=C(CCCCCCC(=O)Nc1ccccc1)NO [Vorinostat] (partner 1 µM)
Procedure, shortened: (§1)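 A single step with final 0.05% Triton X-100, 1% formaldehyde and 1 ug/ml Hoechst fixed the cells and stained nuclei 5 days after treatment. Lung cancer cell lines in 1536-well plates had been treated by pin tool the day after seeding with one drug alone or a fixed anchor-drug dose plus five library-drug doses (not always all listed) in √10 steps, and nuclei were counted on 4× images. Relative viability is the ratio of nuclei in treated wells to nuclei in vehicle wells, taken as the median of duplicate plates.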

[2] = compound: CC(=O)c1c(C)c2cnc(Nc3ccc(N4CCNCC4)cn3)nc2n(C2CCCC2)c1=O [Palbociclib] + CS(=O)(=O)N1CCN(Cc2cc3nc(-c4cccc5[nH]ncc45)nc(N4CCOCC4)c3s2)CC1 [Pictilisib] (partner 1 µM)
Procedure, shortened: as §1

[3] = compound: CC(=O)c1c(C)c2cnc(Nc3ccc(N4CCNCC4)cn3)nc2n(C2CCCC2)c1=O [Palbociclib] + Nc1ncn([C@H]2C[C@H](O)[C@@H](CO)O2)c(=O)n1 [Decitabine] (partner 2 µM)
Procedure, shortened: as §1

[4] = compound: CC(=O)c1c(C)c2cnc(Nc3ccc(N4CCNCC4)cn3)nc2n(C2CCCC2)c1=O [Palbociclib] + CS(=O)(=O)CCNCc1ccc(-c2ccc3ncnc(Nc4ccc(OCc5cccc(F)c5)c(Cl)c4)c3c2)o1 [Lapatinib] (partner 2 µM)
Procedure, shortened: as §1

Cell Line	relative viability ([1]; first compound 0.01 µM)	relative viability ([1]; first compound 0.03162 µM)	relative viability ([1]; first compound 0.1 µM)	relative viability ([1]; first compound 0.3162 µM)	relative viability ([1]; first compound 1 µM)	relative viability ([2]; first compound 0.01 µM)	relative viability ([2]; first compound 0.03162 µM)	relative viability ([2]; first compound 0.1 µM)	relative viability ([2]; first compound 0.3162 µM)	relative viability ([2]; first compound 1 µM)	relative viability ([3]; first compound 0.01 µM)	relative viability ([3]; first compound 0.03162 µM)	relative viability ([3]; first compound 0.1 µM)	relative viability ([3]; first compound 0.3162 µM)	relative viability ([3]; first compound 1 µM)	relative viability ([4]; first compound 0.01 µM)	relative viability ([4]; first compound 0.03162 µM)	relative viability ([4]; first compound 0.1 µM)	relative viability ([4]; first compound 0.3162 µM)	relative viability ([4]; first compound 1 µM)
RERF-LC-KJ	0.724	0.613	0.66	0.747	0.682	0.53	0.459	0.464	0.484	0.629	0.879	0.732	0.733	0.748	0.767	0.846	0.81	0.817	0.869	0.837
SK-LU-1	0.805	0.748	0.617	0.529	0.436	0.559	0.474	0.445	0.383	0.286	0.644	0.659	0.6	0.639	0.505	1.02	0.856	0.624	0.619	0.529
SK-MES-1	1.08	0.902	0.735	0.763	0.395	0.359	0.305	0.238	0.266	0.196	0.354	0.377	0.404	0.357	0.263	0.439	0.449	0.391	0.406	0.344
SW 1573	0.752	0.251	0.51	0.673	0.546	0.447	0.389	0.322	0.327	0.289	0.573	0.455	0.598	0.479	0.326	1.01	1.09	1.04	0.901	0.781
UMC-11	0.308	0.42	0.369	0.312	0.242	0.873	0.671	0.429	0.36	0.219	0.696	0.624	0.363	0.48	0.336	1.03	0.75	0.593	0.432	0.34
